Consider three substances from patent publication US8883738B2, “Use of a peptide fragment of CD44v6 in the treatment of ophthalmic diseases” (Karlsruher Institut für Technologie, priority 2009, dated 2014).

Assay [1] concerns the target T1, VEGFR-2 (Homo sapiens, UniProt P35968).
T1 construct: endogenous in cells; host or cells: HUVEC (Provitro GmbH)
As to the kind of experiment: Activation of VEGFR-2 (phospho-VEGFR-2 Western blot) in HUVEC. It is filed as cell-based. To be noted: 100 μg/ml anti-CD44v6, 100 ng/ml peptide. The protocol: Activation of RTKs and Erk Serum starved cells (24 h) were induced with the growth factor HGF (20 ng/ml) at 37° C. for 5 min or with VEGF-A165 or VEGF-A121 (40 ng/ml) at 37° C. for 8 min. Where indicated, the cells were treated with blocking reagents prior to induction at 37° C. for 10 min (100 μg/ml anti-CD44v6, 100 ng/ml v6 peptide or 100 ng/ml control peptide, 0.5 μg/ml CD44v6ECD). Cells were washed with icecold PBS. To detect activated Erk, cells were lysed in boiling SDS-sample buffer containing 100 mM dithiothreitol (DTT) and subjected to Western blot analysis using antibodies against phosphorylated Erk. The Erk loading control was performed on the same blot stripped (62.5 mM Tris pH 6.8, 2% SDS, 0.8% DTT) and probed with the Erk antibody. To detect activated VEGFR-2, cells were lysed in reducing sample buffer and the blots of SDS-PAGE gels were probed with an antibody against phosphorylated VEGFR-2. Alternatively, lysates (20 mM Tris pH 7.4, 1 mM EDTA, 1 mM EGTA, 1 mM DTT, 25 mM NaCl, 1.5% Triton X-100, 10 mM NaF, 1 mM PMSF, 1 mM Na-orthovanadate, 1 mM aprotinin and leupeptin) were prepared. […] Bands in Western blot analysis were quantified with the program Image J.
(In general: Immunoblotting shows a protein as a band on a membrane.)

Assay [2] concerns Erk. The experiment in a line: Activation of Erk (phospho-Erk Western blot) in HUVEC. It is filed as cell-based, human. Conditions: 100 μg/ml anti-CD44v6, 100 ng/ml peptide, 0.5 μg/ml CD44v6ECD; for VEGF-A165 induced activation of Erk: VEGF-A165 40 ng/ml. How it is done:
Activation of RTKs and Erk Serum starved cells (24 h) were induced with the growth factor HGF (20 ng/ml) at 37° C. for 5 min or with VEGF-A165 or VEGF-A121 (40 ng/ml) at 37° C. for 8 min. Where indicated, the cells were treated with blocking reagents prior to induction at 37° C. for 10 min (100 μg/ml anti-CD44v6, 100 ng/ml v6 peptide or 100 ng/ml control peptide, 0.5 μg/ml CD44v6ECD). Cells were washed with icecold PBS. To detect activated Erk, cells were lysed in boiling SDS-sample buffer containing 100 mM dithiothreitol (DTT) and subjected to Western blot analysis using antibodies against phosphorylated Erk. The Erk loading control was performed on the same blot stripped (62.5 mM Tris pH 6.8, 2% SDS, 0.8% DTT) and probed with the Erk antibody. To detect activated VEGFR-2, cells were lysed in reducing sample buffer and the blots of SDS-PAGE gels were probed with an antibody against phosphorylated VEGFR-2. Alternatively, lysates (20 mM Tris pH 7.4, 1 mM EDTA, 1 mM EGTA, 1 mM DTT, 25 mM NaCl, 1.5% Triton X-100, 10 mM NaF, 1 mM PMSF, 1 mM Na-orthovanadate, 1 mM aprotinin and leupeptin) were prepared. After centrifugation, the cleared lysates (12,000 rpm for 15 min) were incubated with VEGFR-2 antibody (clone A-3, Santa Cruz, Heidelberg, Germany) or a mouse IgG control (Santa Cruz, Heidelberg, Germany) at 4° C. overnight followed by incubation with Protein A/G agarose beads (Merck, Darmstadt, Germany) for 2 h at 4° C. The beads were washed three times, boiled in sample buffer and subjected to Western blot analysis using phospho-specific VEGFR-2 antibody. To obtain the loading control, the blots were stripped and reprobed with the VEGFR-2 antibody. Blots were stained using the enhanced chemiluminescence system (ECL, Thermo Fischer Scientific Inc., Waltham, Mass.). Bands in Western blot analysis were quantified with the program Image J.

In assay [3] the test system is MDA-MB231 tumors. As to the kind of experiment: Orthotopic MDA-MB231 mammary tumor model, tumor-induced angiogenesis. It is filed as in vivo, SCID mice. The protocol: Injections of tumor cells MDA-MB231 cells (1×10^6 per animal) were harvested at subconfluency, washed with PBS and resuspended in 50 μl of PBS. The cells were implanted through a skin incision with an insulin syringe very slowly into the mammary fat pad of the fourth mammary complex of anesthetized female SCID mice (strain C.B-17/Ztm-scid). The incision was closed using an interrupted Vicryl suture for the skin (5/0, Ethicon, Norderstedt, Germany). The tumors were allowed to grow for one week, then the animals were divided in groups (6 to 7 animals per group) and treated with 20 μg of anti-mouse CD44v6 (clone 9A4), control IgG (NatuTec, Frankfurt, Germany), mouse v6 peptide or control peptide three times per week i.p. Tumor growth was monitored once per week using a caliper or via fpVCT imaging (see below). The animals were sacrificed 5 weeks after tumor cell implantation, the tumors were excised, measured, divided in halves and fixed in 4% formalin or zinc fixative (0.5 g/l calcium acetate, 5 g/l zinc acetate, 5 g/l zinc chloride in 0.1 M Tris pH 7.4) for 24 h for immunohistological analysis. L3.6pl human pancreatic cancer cells were injected orthotopically. Briefly, a small left abdominal flank incision was made and the spleen was exteriorized. […] The tumor volume was calculated as length×height×width divided by 2. […]

T1 sequence (P35968 20-1356): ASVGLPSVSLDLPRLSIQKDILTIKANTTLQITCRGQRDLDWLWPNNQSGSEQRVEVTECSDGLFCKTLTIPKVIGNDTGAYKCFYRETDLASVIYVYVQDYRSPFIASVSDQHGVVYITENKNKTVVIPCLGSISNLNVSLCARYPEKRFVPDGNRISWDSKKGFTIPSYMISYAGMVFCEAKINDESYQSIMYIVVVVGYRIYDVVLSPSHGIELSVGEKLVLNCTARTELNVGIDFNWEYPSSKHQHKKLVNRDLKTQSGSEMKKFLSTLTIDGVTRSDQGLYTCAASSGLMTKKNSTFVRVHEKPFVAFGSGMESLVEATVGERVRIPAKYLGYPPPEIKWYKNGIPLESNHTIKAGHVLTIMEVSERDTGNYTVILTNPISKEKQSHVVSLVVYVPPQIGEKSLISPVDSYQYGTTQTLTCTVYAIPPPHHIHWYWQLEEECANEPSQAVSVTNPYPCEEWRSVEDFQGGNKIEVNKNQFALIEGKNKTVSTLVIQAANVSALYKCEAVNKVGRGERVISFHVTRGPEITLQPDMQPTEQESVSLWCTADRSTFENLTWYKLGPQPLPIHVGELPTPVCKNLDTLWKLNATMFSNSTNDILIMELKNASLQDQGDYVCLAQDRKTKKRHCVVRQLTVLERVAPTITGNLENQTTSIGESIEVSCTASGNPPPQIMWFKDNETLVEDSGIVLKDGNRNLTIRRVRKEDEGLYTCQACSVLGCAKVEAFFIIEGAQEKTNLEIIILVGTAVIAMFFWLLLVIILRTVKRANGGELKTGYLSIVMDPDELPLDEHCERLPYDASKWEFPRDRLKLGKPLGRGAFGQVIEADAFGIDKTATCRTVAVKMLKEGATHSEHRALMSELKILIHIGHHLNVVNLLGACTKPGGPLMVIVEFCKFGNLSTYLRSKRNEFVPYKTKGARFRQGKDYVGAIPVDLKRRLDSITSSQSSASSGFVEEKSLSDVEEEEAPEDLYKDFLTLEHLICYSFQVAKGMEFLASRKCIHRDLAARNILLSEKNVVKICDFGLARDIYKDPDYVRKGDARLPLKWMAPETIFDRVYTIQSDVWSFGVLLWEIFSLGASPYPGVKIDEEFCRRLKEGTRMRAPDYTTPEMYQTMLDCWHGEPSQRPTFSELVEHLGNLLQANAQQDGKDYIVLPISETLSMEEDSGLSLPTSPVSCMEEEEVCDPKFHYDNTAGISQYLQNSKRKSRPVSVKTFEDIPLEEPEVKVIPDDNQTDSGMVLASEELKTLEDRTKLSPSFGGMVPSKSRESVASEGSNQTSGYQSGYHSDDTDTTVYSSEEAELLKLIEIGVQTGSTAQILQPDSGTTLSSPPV

“CD44v6ECD: soluble CD44v6 ectodomain produced in Pichia pastoris”: the “activation of VEGFR-2 by VEGF-A121” value in assay [1] (VEGF-A121 40 ng/ml, 0.5 μg/ml CD44v6ECD) is recorded as “completely blocked”. Besides, the “HGF induced activation of Erk” value in assay [2] (HGF 20 ng/ml) is recorded as “completely abrogated”. The “VEGF-A121 induced activation of Erk” value in assay [2] (VEGF-A121 40 ng/ml) is “completely blocked”. Further, in assay [2], the “VEGF-A165 induced activation of Erk” value was “completely abrogated”.
For “KEQWFGNRWHEGYR (listed as Homo sapiens) [v6 human peptide (14mer)]”, the “activation of VEGFR-2 by VEGF-A165” value in assay [1] (VEGF-A165 40 ng/ml) was “abrogated”. For the same substance, the “VEGF-A165 induced activation of Erk” value in assay [2] is reported as “abrogated”.
For “QETWFQNGWQGKNP (listed as Mus musculus) [v6 murine peptide]”, the tumor growth entry in assay [3] (20 μg i.p. three times per week for four weeks) is listed as “not influenced”. Also, the “average vessel number (microvessel density)” value in assay [3] (CD31 stained tumor sections, 20 μg i.p. three times per week, five animals each) stood at 183 per mm^2.
